Experimental findings from ChEMBL document CHEMBL1201862, “PubChem BioAssay data set” (2004) are described below.

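Dose response: 5 concentrations. Exposure: 48 h. Format: 96-well plates. Endpoint: linear interpolation; highest concentration if not reached. GI50 is the concentration that inhibits growth by half.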 Calls of active or inactive are those of the source. No stated cut-off is given here; in the data, active = GI50 up to about 1.1 µM and inactive = higher.

Among the test systems are SF-539; LOX IMVI; TK-10; HCT-116; SF-295; CAKI-1; MOLT-4; KM-20L2; NCI-H460; M19-MEL; NCI-H226; SNB-75; COLO 205; SK-MEL-2; EKVX; A498.
Common to all, as to assay: NCI-60 cell line screen, 48 h

On to `O=C(c1ccco1)N(C(=S)N1CCN(c2ccccn2)CC1)C1CCCCC1`, for which the GI50 with SF-539, with LOX IMVI, in the assay on TK-10, in the assay on HCT-116, with SF-295 and with CAKI-1 was > 100 µM (inactive) in each case. The GI50 was 83.4 µM (inactive) with MOLT-4; > 100 µM (inactive) in the assay with KM-20L2; > 100 µM (inactive) in the assay on NCI-H460; > 100 µM (inactive) with M19-MEL; > 100 µM (inactive) in the assay on NCI-H226; > 100 µM (inactive) with SNB-75. Besides, the GI50 in the assay with COLO 205 and in the assay with SK-MEL-2 was > 100 µM (inactive) throughout.
Regarding `Cc1cc(NS(=O)(=O)c2ccc(Nc3c4ccccc4nc4c(C(=O)NCCN(C)C)ccc(Cl)c34)cc2)no1`, the GI50 is 3.14 µM (inactive) with SF-539; 1.48 µM (inactive) in the assay on LOX IMVI; 13.9 µM (inactive) in the assay with TK-10; 3.3 µM (inactive) in the assay with HCT-116; 3.8 µM (inactive) in the assay on SF-295; 0.28 µM (active) with MOLT-4. The GI50 with KM-20L2 was 11 µM (inactive); in the assay on NCI-H460 it was 1.36 µM (inactive); in the assay with M19-MEL it was 3.39 µM (inactive); with NCI-H226, 1.85 µM (inactive); in the assay on EKVX, 8.34 µM (inactive); with SNB-75 it was 2.76 µM (inactive). In addition, the GI50 in the assay with COLO 205 is 2.45 µM (inactive); in the assay with SK-MEL-2 it was 6.1 µM (inactive).
As to `O=C(O[C@H]1[C@@H]2C=CO[C@@H](OC3OC(CO)C(O)C(O)C3O)[C@@H]2[C@@]2(CO)O[C@@H]12)c1ccc(O)c(O)c1` (stereo not given in full), the GI50 with SF-539, in the assay with LOX IMVI, in the assay on TK-10, with SF-295, with CAKI-1 and in the assay on MOLT-4 was > 100 µM (inactive) throughout. Further, the GI50 with A498, with KM-20L2, in the assay with NCI-H460, in the assay with M19-MEL, in the assay with EKVX and with SNB-75 was > 100 µM (inactive) each time. Besides, the GI50 in the assay on COLO 205 and in the assay on SK-MEL-2 was > 100 µM (inactive) throughout.
As to `CCCCCCCCCCNCCSSCc1ccc(Cl)cc1`, the GI50 was 1.95 µM (inactive) in the assay with SF-539; 1.92 µM (inactive) in the assay on LOX IMVI; 2.18 µM (inactive) in the assay with TK-10; 1.73 µM (inactive) in the assay on HCT-116; 1.91 µM (inactive) in the assay with SF-295; 2.18 µM (inactive) in the assay with CAKI-1. Besides, the GI50 is 0.439 µM (active) with MOLT-4; 10.2 µM (inactive) with A498; 1.36 µM (inactive) with KM-20L2; 3.25 µM (inactive) with NCI-H460; 1.22 µM (inactive) in the assay with M19-MEL; 3.06 µM (inactive) with EKVX. Further, the GI50 in the assay with SNB-75 was 5.86 µM (inactive); in the assay with COLO 205 it was 2.39 µM (inactive); in the assay with SK-MEL-2 it was 0.352 µM (active).
For `CC1=C(/C(C)=N/NC(=O)c2ccccc2O)C(C)C(/C(C)=N/NC(=O)c2ccccc2O)=C(C)N1`, the GI50 is 20 µM (inactive) in the assay on SF-539; 18.3 µM (inactive) in the assay with LOX IMVI; 18.8 µM (inactive) in the assay with TK-10; 18.5 µM (inactive) in the assay with HCT-116; 28.1 µM (inactive) with CAKI-1; 5.09 µM (inactive) in the assay with MOLT-4. In addition, the GI50 in the assay with A498 was 27.8 µM (inactive); in the assay on KM-20L2, 33.3 µM (inactive); in the assay with NCI-H460 it was 18 µM (inactive); with M19-MEL, 18.7 µM (inactive); in the assay with EKVX it was 14.7 µM (inactive); in the assay with SNB-75 it was 11.6 µM (inactive).
Take `Cc1ccc(C(=O)/C=C/c2ccccc2Cl)cc1`: the GI50 was 21.2 µM (inactive) in the assay on SF-539; 21.1 µM (inactive) in the assay on TK-10; 11.8 µM (inactive) in the assay with HCT-116; 19.2 µM (inactive) in the assay with SF-295; 16.8 µM (inactive) with CAKI-1; 19.6 µM (inactive) in the assay with MOLT-4. Also, the GI50 with A498 is 25.4 µM (inactive); in the assay with KM-20L2 it was 16.7 µM (inactive); in the assay on NCI-H460, 14.9 µM (inactive); in the assay with M19-MEL, 18.8 µM (inactive); with NCI-H226, 25.1 µM (inactive); with EKVX, 19.2 µM (inactive). In addition, the GI50 in the assay on SNB-75 was 19.1 µM (inactive); with COLO 205, 24.2 µM (inactive).
`CCOc1ccc(NC(=O)C(=O)CC(=O)C2=C(C)Nc3ccccc3S2)cc1`: the GI50 in the assay on SF-539, with LOX IMVI, in the assay with TK-10, in the assay with HCT-116, in the assay with SF-295 and in the assay on CAKI-1 was > 50 µM (inactive) throughout. In addition, the GI50 in the assay on MOLT-4, in the assay with A498, in the assay on KM-20L2, in the assay with NCI-H460, in the assay with M19-MEL and with NCI-H226 was > 50 µM (inactive) each time. Further, the GI50 in the assay on EKVX, in the assay on COLO 205 and with SK-MEL-2 was > 50 µM (inactive) in each case.
With `NC1=NN(c2ccccc2)C(=O)C1C(=O)C(=O)Nc1cccc(C(F)(F)F)c1` (stereo not given), the GI50 in the assay on SF-539, with LOX IMVI, in the assay on TK-10, in the assay on HCT-116, in the assay on SF-295 and with CAKI-1 was > 100 µM (inactive) in each case. The GI50 in the assay on MOLT-4, in the assay on A498, in the assay on KM-20L2, in the assay on NCI-H460, in the assay with M19-MEL and in the assay with NCI-H226 was > 100 µM (inactive) in each case. Also, the GI50 in the assay on EKVX, in the assay on COLO 205 and in the assay on SK-MEL-2 was > 100 µM (inactive) throughout.
On to `CC(=O)OC1C=CC2CCN3C(=O)c4cc5c(cc4[C@H]1C23)OCO5` (stereo not given in full), for which the GI50 with SF-539, with LOX IMVI, with TK-10, in the assay on HCT-116, in the assay with SF-295 and in the assay with MOLT-4 was > 100 µM (inactive) in each case. The GI50 in the assay on KM-20L2, in the assay on NCI-H460, with M19-MEL, with NCI-H226, in the assay with EKVX and with SNB-75 was > 100 µM (inactive) throughout. In addition, in the assay on COLO 205, the GI50 was > 100 µM (inactive).
As to `Cc1cc(OC(=O)c2c(C)cc(OC(=O)c3c(C)cc(O)cc3O)cc2O)cc(O)c1C(=O)O` [GYROPHORIC ACID], the GI50 in the assay with SF-539, with LOX IMVI, in the assay with TK-10, with SF-295, with CAKI-1 and in the assay on MOLT-4 was > 100 µM (inactive) each time. Besides, the GI50 in the assay on A498 is > 100 µM (inactive); with KM-20L2 it was > 100 µM (inactive); in the assay with NCI-H460 it was > 100 µM (inactive); in the assay with M19-MEL, > 100 µM (inactive); in the assay with EKVX, > 100 µM (inactive); in the assay with SNB-75, 91.6 µM (inactive). For the same molecule, the GI50 in the assay on COLO 205 and in the assay on SK-MEL-2 was > 100 µM (inactive) each time.
